The source of these data is patent US11707462B2, “Checkpoint kinase 1 (CHK1) inhibitors and uses thereof” (Boundless Bio, Inc., priority 2021, dated 2023).

For orientation: IC50 means the concentration needed to halve the response being measured. Read a high IC50 as weaker potency in that assay.

One test relates to p-CHK1 (Ser345). Briefly: AlphaLISA SureFire Ultra p-CHK1 (Ser345) cellular assay in HT29 cells. The settings on record: Homo sapiens, HT-29, 16 h at 37° C. In kind it is cell-based. The method in brief: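 HT29 cells treated with compounds over a 10-point, 3-fold dilution series for 16 h at 37° C., then lysed; p-CHK1 (Ser345) in lysates measured by AlphaLISA SureFire Ultra (acceptor and donor steps 1 h each at room temperature). IC50 from dose-response curve fits.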

In test [1] the target is T1, Full-length human Chk1 protein (Homo sapiens, UniProt O14757).
T1 construct: purchased Carna Biosciences, Inc. 02-117
T1 sequence (O14757 1-476): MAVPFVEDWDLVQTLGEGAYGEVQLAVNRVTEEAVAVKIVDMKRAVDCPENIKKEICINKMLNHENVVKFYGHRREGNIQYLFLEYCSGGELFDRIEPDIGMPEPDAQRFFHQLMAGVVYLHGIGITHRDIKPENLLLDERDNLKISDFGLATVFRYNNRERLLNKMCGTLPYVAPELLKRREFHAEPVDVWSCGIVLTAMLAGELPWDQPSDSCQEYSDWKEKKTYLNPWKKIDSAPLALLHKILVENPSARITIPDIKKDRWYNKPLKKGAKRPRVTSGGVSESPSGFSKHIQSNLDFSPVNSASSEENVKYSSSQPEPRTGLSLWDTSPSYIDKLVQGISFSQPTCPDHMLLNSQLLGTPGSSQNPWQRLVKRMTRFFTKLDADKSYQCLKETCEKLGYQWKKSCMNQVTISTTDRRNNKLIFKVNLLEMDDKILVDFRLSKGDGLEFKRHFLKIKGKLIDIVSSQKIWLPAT
Briefly: Kinase HTRF biochemical assay (HTRF KinEASE), Chk1 enzyme activity. The settings on record: full-length human Chk1, ATP 1 mM, 60 minutes at room temperature. The method in brief: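 Full-length human Chk1 (0.012 ng/μL) in buffer with 5 mM MgCl2 and 1 mM DTT, preincubated with compound 10 min at room temperature; reaction with 120 nM biotinylated STK substrate 1 and 1 mM ATP for 60 min at room temperature. HTRF detection via cryptate antibody/streptavidin-XL665; IC50 from 10-point duplicate curves.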
For orientation: In TR-FRET formats the signal depends on donor and acceptor labels being close together.

In the case of `CN[C@@H]1CC[C@@H](Oc2ccc(Cl)c(F)c2-c2cc(Nc3cnc(C#N)cn3)n[nH]2)C1` [Example 3-22, 5-((5-(3-chloro-2-fluoro-6-(((1R,3R)-3-(methylamino)cyclopentyl)oxy)phenyl)-1H-pyrazol-3-yl)amino)pyrazine-2-carbonitrile], the IC50 in the test with p-CHK1 (Ser345) lay in the range of 100 to 500 nM; in test [1], 10 to 100 nM.
Take `N#Cc1cnc(Nc2cc(-c3c(F)cc(Cl)cc3O[C@@H]3CC[C@H](N)C3)[nH]n2)cn1` [Example 3-24, 5-((5-(2-(((1R,3S)-3-aminocyclopentyl)oxy)-4-chloro-6-fluorophenyl)-1H-pyrazol-3-yl)amino)pyrazine-2-carbonitrile]: the IC50 in the test with p-CHK1 (Ser345) was 500 to 1000 nM; in test [1] it was 10 to 100 nM.
Taken in the same sequence, the figures for `CN[C@@H]1CC[C@@H](Oc2cc(Cl)cc(F)c2-c2cc(Nc3cnc(C#N)cn3)n[nH]2)C1` [Example 3-25, 5-((5-(4-chloro-2-fluoro-6-(((1R,3R)-3-(methylamino)cyclopentyl)oxy)phenyl)-1H-pyrazol-3-yl)amino)pyrazine-2-carbonitrile] were 100 to 500 nM and 10 to 100 nM.
Regarding `Cc1ccc(O[C@@H]2CC[C@@H](N)C2)c(-c2cc(Nc3cnc(C#N)cn3)n[nH]2)c1F` [Example 3-26, 5-((5-(6-(((1R,3R)-3-aminocyclopentyl)oxy)-2-fluoro-3-methylphenyl)-1H-pyrazol-3-yl)amino)pyrazine-2-carbonitrile], the 50% inhibitory concentration (IC50) is not above 50 nM in the test with p-CHK1 (Ser345) and not above 10 nM in test [1].
The corresponding values for `Cc1cc(-c2cc(Nc3cnc(C#N)cn3)n[nH]2)c(O[C@@H]2CC[C@@H](N)C2)cc1F` [Example 3-27, 5-((5-(2-(((1R,3R)-3-aminocyclopentyl)oxy)-4-fluoro-5-methylphenyl)-1H-pyrazol-3-yl)amino)pyrazine-2-carbonitrile] are 50 to 100 nM and not above 10 nM.
Turning to `N#Cc1cnc(Nc2cc(-c3c(O[C@@H]4CC[C@@H](N)C4)ccc(F)c3F)[nH]n2)cn1` [Example 3-28, 5-((5-(6-(((1R,3R)-3-aminocyclopentyl)oxy)-2,3-difluorophenyl)-1H-pyrazol-3-yl)amino)pyrazine-2-carbonitrile], the results for the IC50 (in the test on p-CHK1 (Ser345); in test [1]) were 100 to 500 nM and not above 10 nM, respectively.
In the case of `N#Cc1cnc(Nc2cc(-c3c(O[C@@H]4CC[C@@H](N)C4)ccc(Cl)c3F)[nH]n2)cn1` [Example 3-29, 5-((5-(6-(((1R,3R)-3-aminocyclopentyl)oxy)-3-chloro-2-fluorophenyl)-1H-pyrazol-3-yl)amino)pyrazine-2-carbonitrile], the values for the IC50 (in the test with p-CHK1 (Ser345); in test [1]) were 100 to 500 nM and not above 10 nM, respectively.
In the case of `N#Cc1cnc(Nc2cc(-c3c(F)cc(Cl)cc3O[C@@H]3CC[C@@H](N)C3)[nH]n2)cn1` [Example 3-30, 5-((5-(2-(((1R,3R)-3-aminocyclopentyl)oxy)-4-chloro-6-fluoropheny)-1H-pyrazol-3-yl)amino)pyrazine-2-carbonitrile], the IC50 is 100 to 500 nM in the test on p-CHK1 (Ser345) and not above 10 nM in test [1].
Taken in the same sequence, the figures for `N#Cc1cnc(Nc2cc(-c3c(F)cccc3O[C@@H]3CC[C@H]3N)[nH]n2)cn1` [Example 3-33, 5-((5-(2-((1R,2R)-2-aminocyclobutoxy)-6-fluorophenyl)-1H-pyrazol-3-yl)amino)pyrazine-2-carbonitrile] were 50 to 100 nM and 10 to 100 nM.
With `N#Cc1cnc(Nc2cc(-c3c(F)cccc3O[C@@H]3CCCC[C@H](N)C3)[nH]n2)cn1` [Example 3-35, 5-((5-(2-(((1R,3S)-3-aminocycloheptyl)oxy)-6-fluorophenyl)-1H-pyrazol-3-yl)amino)pyrazine-2-carbonitrile], the IC50 in the test on p-CHK1 (Ser345) was not above 50 nM; in test [1] it was not above 10 nM.
The corresponding values for `N#Cc1cnc(Nc2cc(-c3c(F)cccc3O[C@H]3CCCC[C@H](N)C3)[nH]n2)cn1` [Example 3-38, 5-((5-(2-(((1S,3S)-3-aminocycloheptyl)oxy)-6-fluorophenyl)-1H-pyrazol-3-yl)amino)pyrazine-2-carbonitrile] are 50 to 100 nM and not above 10 nM.
In the case of `N#Cc1cnc(Nc2cc(-c3c(F)cccc3O[C@@H]3CCC[C@H]3N)[nH]n2)cn1` [Example 3-40, 5-((5-(2-(((1R,2R)-2-aminocyclopentyl)oxy)-6-fluorophenyl)-1H-pyrazol-3-yl)amino)pyrazine-2-carbonitrile], the half-maximal inhibitory concentration (IC50) in the test with p-CHK1 (Ser345) was not above 50 nM; in test [1], not above 10 nM.
Take `N#Cc1cnc(Nc2cc(-c3ncccc3O[C@H]3CC[C@@H](N)C3)[nH]n2)cn1` [Example 3-42, 5-((5-(3-(((1S,3R)-3-aminocyclopentyl)oxy)pyridin-2-yl)-1H-pyrazol-3-yl)amino)pyrazine-2-carbonitrile]: the IC50 with p-CHK1 (Ser345) fell in the range of 100 to 500 nM; in test [1], 10 to 100 nM.
For `Cc1ccc(O[C@H]2CC[C@H](N)C2)c(-c2cc(Nc3cnc(C#N)cn3)n[nH]2)n1` [Example 3-44, 5-((5-(3-(((1S,3S)-3-aminocyclopentyl)oxy)-6-methylpyridin-2-yl)-1H-pyrazol-3-yl)amino)pyrazine-2-carbonitrile], the concentration for half-maximal inhibition (IC50) in the test on p-CHK1 (Ser345) lay within 500 to 1000 nM; in test [1], 10 to 100 nM.
As to `CN[C@@H]1CC[C@@H](Oc2ccc(C)nc2-c2cc(Nc3cnc(C#N)cn3)n[nH]2)C1` [Example 3-45, 5-((5-(6-methyl-3-(((1R,3R)-3-(methylamino)cyclopentyl)oxy)pyridin-2-yl)-1H-pyrazol-3-yl)amino)pyrazine-2-carbonitrile], the half-maximal inhibitory concentration (IC50) with p-CHK1 (Ser345) was not above 50 nM; in test [1], not above 10 nM.
Taken in the same sequence, the figures for `CC(C)c1ccc(O[C@@H]2CC[C@H](N)C2)c(-c2cc(Nc3cnc(C#N)cn3)n[nH]2)n1` [Example 3-46, 5-((5-(3-(((1R,3S)-3-aminocyclopentyl)oxy)-6-isopropylpyridin-2-yl)-1H-pyrazol-3-yl)amino)pyrazine-2-carbonitrile] were 50 to 100 nM and not above 10 nM.
The corresponding values for `CCCc1ccc(O[C@@H]2CC[C@H](N)C2)c(-c2cc(Nc3cnc(C#N)cn3)n[nH]2)n1` [Example 3-47, 5-((5-(3-(((1R,3S)-3-aminocyclopentyl)oxy)-6-propylpyridin-2-yl)-1H-pyrazol-3-yl)amino)pyrazine-2-carbonitrile] are 50 to 100 nM and not above 10 nM.
Take `Cc1cc(O[C@@H]2CC[C@H](N)C2)c(-c2cc(Nc3cnc(C#N)cn3)n[nH]2)nc1C` [Example 3-48, 5-((5-(3-(((1R,3S)-3-aminocyclopentyl)oxy)-5,6-dimethylpyridin-2-yl)-1H-pyrazol-3-yl)amino)pyrazine-2-carbonitrile]: the figures for the IC50 (in the test with p-CHK1 (Ser345); in test [1]) were not above 50 nM and not above 10 nM, respectively.
Take `N#Cc1cnc(Nc2cc(-c3nc(C(F)(F)F)ccc3O[C@@H]3CC[C@H](N)C3)[nH]n2)cn1` [Example 3-49, 5-((5-(3-(((1R,3S)-3-aminocyclopentyl)oxy)-6-(trifluoromethyl)pyridin-2-yl)-1H-pyrazol-3-yl)amino)pyrazine-2-carbonitrile]: the results for the concentration for half-maximal inhibition (IC50) (in the test on p-CHK1 (Ser345); in test [1]) were 100 to 500 nM and 10 to 100 nM, respectively.
With `Cc1nc(-c2cc(Nc3cnc(C#N)cn3)n[nH]2)c(O[C@@H]2CC[C@H](N)C2)cc1F` [Example 3-50, 5-((5-(3-(((1R,3S)-3-aminocyclopentyl)oxy)-5-fluoro-6-methylpyridin-2-yl)-1H-pyrazol-3-yl)amino)pyrazine-2-carbonitrile], the IC50 lay within 50 to 100 nM in the test with p-CHK1 (Ser345) and 10 to 100 nM in test [1].
Taken in the same sequence, the figures for `COc1c(C)ccc(O[C@@H]2CC[C@H](N)C2)c1-c1cc(Nc2cnc(C#N)cn2)n[nH]1` [Example 4-1, 5-((5-(6-(((1R,3S)-3-aminocyclopentyl)oxy)-2-methoxy-3-methylphenyl)-1H-pyrazol-3-yl)amino)pyrazine-2-carbonitrile] were 500 to 1000 nM and 100 to 500 nM.
`COc1c(Cl)ccc(O[C@@H]2CC[C@H](N)C2)c1-c1cc(Nc2cnc(C#N)cn2)n[nH]1` [Example 4-2, 5-((5-(6-(((1R,3S)-3-aminocyclopentyl)oxy)-3-chloro-2-methoxyphenyl)-1H-pyrazol-3-yl)amino)pyrazine-2-carbonitrile]: the IC50 with p-CHK1 (Ser345) lay in the range of 500 to 1000 nM; in test [1], 10 to 100 nM.
`COc1ccc(C)c(O[C@@H]2CC[C@H](N)C2)c1-c1cc(Nc2cnc(C#N)cn2)n[nH]1` [Example 4-3, 5-((5-(2-(((1R,3S)-3-aminocyclopentyl)oxy)-6-methoxy-3-methylphenyl)-1 H-pyrazol-3-yl)amino)pyrazine-2-carbonitrile]: the IC50 in the test with p-CHK1 (Ser345) was more than 1000 nM; in test [1], 100 to 500 nM.
The corresponding values for `N#Cc1cnc(Nc2cc(-c3nc(C4CC4)ccc3O[C@@H]3CC[C@H](N)C3)[nH]n2)cn1` [Example 4-5, 5-((5-(3-(((1R,3S)-3-aminocyclopentyl)oxy)-6-cyclopropylpyridin-2-yl)-1H-pyrazol-3-yl)amino)pyrazine-2-carbonitrile] are not above 50 nM and not above 10 nM.
